Source: ChEMBL document CHEMBL4390701, “Discovery of 5-(5-fluoro-1H-pyrrolo[2,3-b]pyridin-3-yl)pyrazin-2(1H)-one derivatives as new potent PB2 inhibitors” (Bioorg Med Chem Lett, 2019)

Assays:
[1] = Binding affinity to influenza virus PB2 transformed into Escherichia coli rosseta competent cells by surface plasmon resonance analysis; parameters: species or system unidentified influenza virus
[2] = Cytotoxicity against MDCK cells assessed as reduction in cell viability measured after 72 hrs by alamar blue assay; assay type: cell-based, Canis lupus familiaris; details: dog
Influenza A virus = assay: Antiviral activity against Influenza A virus (A/PR/8/34 (H1N1)) infected in MDCK cells assessed as reduction in viral replication preincubated for 1 hr followed by compound washout and measured after 48 hrs; assay type: functional, organism-based, A/Puerto Rico/8/1934(H1N1)
[3] = Binding affinity to influenza virus PB2 transformed into Escherichia coli rosseta competent cells by isothermal titration calorimetry; parameters: species or system unidentified influenza virus
[4] = tested on: unidentified influenza virus; assay: Binding affinity to influenza virus PB2 transformed into Escherichia coli rosseta competent cells assessed as binding constant by isothermal titration calorimetry
[5] = Influenza A virus, A/Puerto Rico/8/1934(H1N1), MDCK

Q: For `Cn1cc(-c2c[nH]c3ncc(F)cc23)nc(NCCc2cccs2)c1=O`, which Kd [1] is on record?
A: > 50000 nM

Q: For `Cn1cc(-c2c[nH]c3ncc(F)cc23)nc(NC23CC4CC(CC(O)(C4)C2)C3)c1=O`, which Kd [1] is on record?
A: 2050 nM

Q: For `CCn1cc(-c2c[nH]c3ncc(F)cc23)nc(N[C@H]2C3CCC(CC3)[C@@H]2C(=O)O)c1=O`, which Kd [1] is on record?
A: 110 nM

Q: And the CC50 at 72 h [2]?
A: > 100000 nM

Q: And the EC50 (Influenza A virus; [5])?
A: 1020 nM

Q: And the Kd [3]?
A: 190 nM

Q: And the K [4]?
A: 5.19 ×10⁶ /M

Q: Which Kd [1] does the source give for `CC[C@H](Nc1nc(-c2c[nH]c3ncc(F)cc23)cn(C)c1=O)c1ccccc1` here?
A: 10300 nM

Q: Which Kd [1] does the source give for `CC1CCCCC1Nc1nc(-c2c[nH]c3ncc(F)cc23)cn(C)c1=O` (stereo not given) here?
A: 5230 nM

Q: For `O=C(O)[C@H]1C2CCC(CC2)[C@@H]1Nc1nc(-c2c[nH]c3ncc(F)cc23)cn(CC(F)(F)F)c1=O`, which Kd [1] is on record?
A: 170 nM

Q: With `O=C(O)[C@H]1C2CCC(CC2)[C@@H]1Nc1nc(-c2c[nH]c3ncc(F)cc23)cn(C2CCCC2)c1=O` as the compound, how does the Kd [1] read?
A: 490 nM

Q: With `O=C(O)[C@H]1C2CCC(CC2)[C@@H]1Nc1nc(-c2c[nH]c3ncc(F)cc23)cn(C2CC2)c1=O` as the compound, how does the Kd [1] read?
A: 320 nM

Q: For `CC(C)C(CC(=O)O)Nc1nc(-c2c[nH]c3ncc(F)cc23)cn(C)c1=O` (stereo not given), which Kd [1] is on record?
A: 3470 nM

Q: Which Kd [1] does the source give for `O=C(O)[C@H]1C2CCC(CC2)[C@@H]1Nc1nc(-c2c[nH]c3ncc(F)cc23)cn(C2CCC2)c1=O` here?
A: 470 nM

Q: Which Kd [1] does the source give for `CCCn1cc(-c2c[nH]c3ncc(F)cc23)nc(N[C@H]2C3CCC(CC3)[C@@H]2C(=O)O)c1=O` here?
A: 320 nM

Q: Which Kd [1] does the source give for `O=C(O)[C@H]1C2CCC(CC2)[C@@H]1Nc1nc(-c2c[nH]c3ncc(F)cc23)cn(-c2ccc(C(F)(F)F)cc2)c1=O` here?
A: 7150 nM

Q: With `CC(C1CC1)n1cc(-c2c[nH]c3ncc(F)cc23)nc(N[C@H]2C3CCC(CC3)[C@@H]2C(=O)O)c1=O` (stereo not given in full) as the compound, how does the Kd [1] read?
A: 530 nM

Q: With `O=C(O)[C@H]1C2CCC(CC2)[C@@H]1Nc1nc(-c2c[nH]c3ncc(F)cc23)cn(-c2ccc(F)c(F)c2)c1=O` as the compound, how does the Kd [1] read?
A: 5330 nM

Q: Which Kd [1] does the source give for `Cc1cc(C)cc(-n2cc(-c3c[nH]c4ncc(F)cc34)nc(N[C@H]3C4CCC(CC4)[C@@H]3C(=O)O)c2=O)c1` here?
A: 4900 nM

Q: With `NC(=O)c1ncn([C@@H]2O[C@H](CO)[C@@H](O)[C@H]2O)n1` [RIBAVIRIN] as the compound, how does the CC50 at 72 h [2] read?
A: > 100000 nM

Q: And the EC50 (Influenza A virus)?
A: 9120 nM

Q: For `O=C(O)[C@H]1C2CCC(CC2)[C@@H]1Nc1nc(-c2c[nH]c3ncc(F)cc23)cn(-c2ccccc2)c1=O`, which Kd [1] is on record?
A: 1000 nM

Q: Which Kd [1] does the source give for `C[C@H](Nc1nc(-c2c[nH]c3ncc(F)cc23)cn(C)c1=O)c1cccc(F)c1` here?
A: 25700 nM

Q: For `Cn1cc(-c2c[nH]c3ncc(F)cc23)nc(NC[C@@H]2CCCO2)c1=O`, which Kd [1] is on record?
A: 10200 nM

Q: Which Kd [1] does the source give for `Cn1cc(-c2c[nH]c3ncc(F)cc23)nc(N[C@H]2C3CCC(CC3)[C@@H]2C(=O)O)c1=O` here?
A: 270 nM

Q: For `O=C(O)[C@H]1C2CCC(CC2)[C@@H]1Nc1nc(-c2c[nH]c3ncc(F)cc23)cn(CC(F)F)c1=O`, which Kd [1] is on record?
A: 160 nM

Q: With `CC(C)(C)C1CCC(n2cc(-c3c[nH]c4ncc(F)cc34)nc(N[C@H]3C4CCC(CC4)[C@@H]3C(=O)O)c2=O)CC1` (stereo not given in full) as the compound, how does the Kd [1] read?
A: 16300 nM

Q: For `O=C(O)[C@H]1C2CCC(CC2)[C@@H]1Nc1nc(-c2c[nH]c3ncc(F)cc23)cn(Cc2cccc(C(F)(F)F)c2)c1=O`, which Kd [1] is on record?
A: 2130 nM

Q: For `O=C(O)[C@H]1C2CCC(CC2)[C@@H]1Nc1nc(-c2c[nH]c3ncc(F)cc23)cn(C2CCCCC2)c1=O`, which Kd [1] is on record?
A: 740 nM

Q: With `O=C(O)Cn1cc(-c2c[nH]c3ncc(F)cc23)nc(N[C@H]2C3CCC(CC3)[C@@H]2C(=O)O)c1=O` as the compound, how does the Kd [1] read?
A: 500 nM

Q: Which Kd [1] does the source give for `COc1ccc(-n2cc(-c3c[nH]c4ncc(F)cc34)nc(N[C@H]3C4CCC(CC4)[C@@H]3C(=O)O)c2=O)cc1` here?
A: 3930 nM

Q: Which Kd [1] does the source give for `O=C(O)[C@H]1C2CCC(CC2)[C@@H]1Nc1nc(-c2c[nH]c3ncc(F)cc23)cn(Cc2cccs2)c1=O` here?
A: 1040 nM

Q: With `O=C(O)[C@H]1C2CCC(CC2)[C@@H]1Nc1nc(-c2c[nH]c3ncc(F)cc23)ncc1F` [PIMODIVIR] as the compound, how does the Kd [1] read?
A: 70 nM

Q: What about the CC50 at 72 h [2] of the same compound?
A: > 100000 nM

Q: And the EC50 (Influenza A virus; [5])?
A: 2 nM

Q: And the Kd [3]?
A: 50 nM

Q: For `Cn1cc(-c2c[nH]c3ncc(F)cc23)nc(NCCCN2CCOCC2)c1=O`, which Kd [1] is on record?
A: > 50000 nM

Q: Which Kd [1] does the source give for `Cn1cc(-c2c[nH]c3ncc(F)cc23)nc(NC[C@H]2CCCO2)c1=O` here?
A: 8270 nM

Q: Which Kd [1] does the source give for `Cn1cc(-c2c[nH]c3ncc(F)cc23)nc(N[C@@H](Cc2ccccc2)C(N)=O)c1=O` here?
A: 22300 nM

Q: Which Kd [1] does the source give for `CCOc1ccc(-n2cc(-c3c[nH]c4ncc(F)cc34)nc(N[C@H]3C4CCC(CC4)[C@@H]3C(=O)O)c2=O)cc1` here?
A: 6230 nM
